Laboratory results: paper PMC7774954, “Interactomic affinity profiling by holdup assay: Acetylation and distal residues impact the PDZome-binding specificity of PTEN phosphatase” (PLoS ONE, 2020)
*1 amine or outer side, *2 acyl side, *3 side chain or, on linkers, in order; H or OH if unused. Where a SMILES comes first, the peptide text is derived from it. The star is where a group is joined. X1 = O=C(CCCC[C@@H]1SC[C@@H]2NC(=O)N[C@@H]21)NCCCOCCOCCOCCCN*; Suc = O=C(CCC(=O)[*:2])[*:1]

Tests used:
MAGI1-1 = test: Holdup assay, MAGI1-1; assay type: binding, human
GRIP1-5 = test: Holdup assay, GRIP1-5; assay type: binding, human
MAGI3-5 = biological target: T1, MAGI3-5 (Homo sapiens, UniProt Q5TCQ9); test: Holdup assay, MAGI3-5; assay type: binding
T1 sequence (Q5TCQ9 1-1481): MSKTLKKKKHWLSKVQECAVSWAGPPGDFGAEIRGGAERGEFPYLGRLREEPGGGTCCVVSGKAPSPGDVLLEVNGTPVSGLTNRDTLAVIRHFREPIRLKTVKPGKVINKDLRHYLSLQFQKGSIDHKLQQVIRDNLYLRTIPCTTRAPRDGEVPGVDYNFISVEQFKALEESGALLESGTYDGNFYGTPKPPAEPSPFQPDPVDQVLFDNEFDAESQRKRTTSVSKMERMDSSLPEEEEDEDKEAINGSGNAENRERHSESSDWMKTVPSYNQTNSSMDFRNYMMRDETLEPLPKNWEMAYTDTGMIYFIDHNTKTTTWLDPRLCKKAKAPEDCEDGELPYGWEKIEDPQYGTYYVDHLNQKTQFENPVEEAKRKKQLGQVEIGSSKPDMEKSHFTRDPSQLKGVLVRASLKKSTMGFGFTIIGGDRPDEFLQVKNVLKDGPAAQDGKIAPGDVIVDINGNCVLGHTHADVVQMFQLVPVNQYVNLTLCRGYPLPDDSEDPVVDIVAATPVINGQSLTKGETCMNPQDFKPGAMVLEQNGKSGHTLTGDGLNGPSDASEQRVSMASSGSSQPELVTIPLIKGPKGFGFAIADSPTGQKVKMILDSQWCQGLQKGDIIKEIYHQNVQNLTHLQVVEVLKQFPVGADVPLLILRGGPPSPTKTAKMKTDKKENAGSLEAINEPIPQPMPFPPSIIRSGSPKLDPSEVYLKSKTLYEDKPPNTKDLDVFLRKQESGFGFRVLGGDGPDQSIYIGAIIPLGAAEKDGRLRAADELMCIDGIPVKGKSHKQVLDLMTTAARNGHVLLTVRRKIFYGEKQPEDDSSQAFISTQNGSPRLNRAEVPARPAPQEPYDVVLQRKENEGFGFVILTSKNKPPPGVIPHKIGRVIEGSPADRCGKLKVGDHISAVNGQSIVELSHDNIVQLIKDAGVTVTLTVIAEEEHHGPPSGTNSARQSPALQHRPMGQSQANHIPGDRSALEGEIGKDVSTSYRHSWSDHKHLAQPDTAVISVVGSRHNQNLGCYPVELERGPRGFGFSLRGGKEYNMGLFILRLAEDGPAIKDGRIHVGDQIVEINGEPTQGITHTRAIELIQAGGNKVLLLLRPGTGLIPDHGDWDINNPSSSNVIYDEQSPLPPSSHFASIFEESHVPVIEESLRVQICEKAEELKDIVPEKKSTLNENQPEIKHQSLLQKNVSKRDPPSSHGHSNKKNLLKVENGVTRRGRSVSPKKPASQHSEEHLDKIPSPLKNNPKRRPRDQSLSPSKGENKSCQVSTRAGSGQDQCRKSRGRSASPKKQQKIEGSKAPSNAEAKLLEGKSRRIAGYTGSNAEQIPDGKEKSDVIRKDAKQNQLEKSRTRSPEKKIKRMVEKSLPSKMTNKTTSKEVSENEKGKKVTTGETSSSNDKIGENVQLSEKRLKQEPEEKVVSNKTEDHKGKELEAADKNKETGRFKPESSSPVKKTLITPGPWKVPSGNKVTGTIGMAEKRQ

INADL-1 = test: Holdup assay, INADL-1; assay type: binding, human
DLG3-3 = test: Holdup assay, DLG3-3; assay type: binding, human
human PDZome = test: Promiscuity / specificity index from PDZome affinity profile (combined holdup and FP); assay type: binding; conditions: for Nb PDZ (BI): Val for BI=0.2; for Max Log(Kd): maximum over PDZome; for 1/2PDZ: number of PDZ, 1/2PDZ Min and Max; for number of PDZ domains above the half-maximal binding affinity: relative to number of tested and validated PDZ domains
From the text: Using the mean concentration obtained above for each of the different PTEN peptides, the experimental BI values recorded by holdup for all tested domain/peptide pairs were subsequently transformed into equilibrium dissociation constants. […] Thereafter, affinity data measured by FP assay were also included in the […] for the PDZ domains (MAST1-1, MAST2-1, SNX27-1, MAGI1-2 and GRID2IP-2) for which holdup data were missing according to the low quality score in the filtering step. These interaction data detected only by competitive FP and not by holdup represented 1 to 2 additional PDZ binders per PTEN construct. […] This transformation into affinity values makes then possible to compare binding affinity profiles obtained for different peptides and potentially different batches.
The above described holdup-FP strategy delivers binding affinity constants, a universal chemical property. […] We then looked for a numerical parameter that would express, in a quantitative way, this specificity or promiscuity information. For this purpose, we calculated for each profile the difference between the maximal and the minimal significant affinity values detected by the assay, ΔGmax − ΔGmin. Next, we introduced a threshold affinity, called "half-maximal binding affinity" defined as follows: ΔGhalf = ΔGmin + (ΔGmax − ΔGmin)/2. […] Alternatively, the specificity index IS could be defined as 1 –IP. Therefore, the lower the promiscuity index, the higher the specificity index, the higher the specificity of the PBM for a limited number of selected domains across the PDZome.
We probed the specificity index on the PDZome-binding profiles of the four PTEN peptides. […] This would indicate, in qualitative terms, that the PTEN_13 peptide selects PDZ domains in a more specific -less promiscuous- way than that of the three of other peptides. […] One should note that it was not possible to determine index uncertainty by error propagation starting from holdup data, since BI values have been recorded in singlicate. However, the dispersion of log(KD) values around the perfect theoretical correlation line in the correlation plot (Fig 5B) is representative of global IS uncertainty, which was therefore estimated by averaging the distances between the experimental dots and the theoretical diagonal. Details about uncertainties and Fisher’s test calculations are provided in Supp. Materials and S1 File.
Uncertainty on IS was estimated according to several steps described below:
- Since it’s not possible strictly talking to propagate uncertainty for data recorded in singlicate, we considered that log(KD) uncertainty is contained in the correlation plot [log(KD,HU) vs. log(KD,FP)] when comparing the experimental data with the perfect theoretical correlation (the dotted diagonal line).
- Originally, we estimated the 1/2 PDZ index by counting the number of PDZ with a log(KD) value above the threshold calculated with the formulae developed in the manuscript. Then we did the same type of counting for [threshold value + log(KD) uncertainty] and for [threshold value - log(KD) uncertainty].
- From the difference in the two counts is estimated the index uncertainty.
Due to the low number of PDZ occurrences, a Fisher's exact test was preferred to estimate the p-value. Calculations were performed online with http://astatsa.com using default parameters.

LIN7A-1 = test: Holdup assay, LIN7A-1; assay type: binding, human

| Compound | BI (MAGI1-1) | LogKD (MAGI1-1) | BI (GRIP1-5) | LogKD (GRIP1-5) | BI (MAGI3-5) | LogKD (MAGI3-5) | BI (INADL-1) | LogKD (INADL-1) | BI (DLG3-3) | LogKD (DLG3-3) | Nb PDZ (BI) (human PDZome) | Max Log(Kd) (human PDZome) | 1/2PDZ (human PDZome) | number of PDZ domains above the half-maximal binding affinity (human PDZome) | BI (LIN7A-1) | LogKD (LIN7A-1) | Kd (MAGI3-5) | specificity (in words) (human PDZome; compared with the three 11-mer peptides) |
| --- | --- | --- | --- | --- | --- | --- | --- | --- | --- | --- | --- | --- | --- | --- | --- | --- | --- | --- |
| CC[C@H](C)[C@H](NC(=O)[C@H](CCC(N)=O)NC(=O)[C@@H](NC(=O)[C@H](Cc1c[nH]cn1)NC(=O)[C@H](CCC(N)=O)NC(=O)[C@H](CC(=O)O)NC(=O)[C@H](CCC(=O)O)NC(=O)[C@H](CC(=O)O)NC(=O)CCC(=O)NCCCOCCOCCOCCCNC(=O)CCCC[C@@H]1SC[C@@H]2NC(=O)N[C@@H]21)[C@@H](C)O)C(=O)N[C@H](C(=O)N[C@@H](CCCCN)C(=O)N[C@H](C(=O)O)C(C)C)[C@@H](C)O [PTEN_11] | 0.001 | 3.519 | 0.021 | 3.519 | 0.097 | 3.519 | 0.022 | 3.519 | -0.011 | 3.519 | 19 | 4.90 | 9 | 9 | -0.017 | 3.519 | – | – |
| CC[C@H](C)[C@H](NC(=O)[C@H](CCC(N)=O)NC(=O)[C@@H](NC(=O)[C@H](Cc1c[nH]cn1)NC(=O)[C@H](CCC(N)=O)NC(=O)[C@H](CC(=O)O)NC(=O)[C@H](CCC(=O)O)NC(=O)[C@H](CC(=O)O)NC(=O)CCC(=O)NCCCOCCOCCOCCCNC(=O)CCCC[C@@H]1SC[C@@H]2NC(=O)N[C@@H]21)[C@@H](C)O)C(=O)N[C@H](C(=O)N[C@@H](CCCCNC(C)=O)C(=O)N[C@H](C(=O)O)C(C)C)[C@@H](C)O [PTEN_Ac] | 0.034 | 3.605 | -0.054 | 3.605 | 0.21 | – | 0.004 | 3.605 | -0.04 | 3.605 | 43 | – | 12 | 12 | -0.07 | 3.605 | 102 µM | – |
| CC[C@H](C)[C@H](NC(=O)[C@H](CCC(N)=O)NC(=O)[C@@H](NC(=O)[C@H](Cc1c[nH]cn1)NC(=O)[C@H](CCC(N)=O)NC(=O)[C@H](CC(=O)O)NC(=O)[C@H](CCC(=O)O)NC(=O)[C@H](CC(=O)O)NC(=O)CCC(=O)NCCCOCCOCCOCCCNC(=O)CCCC[C@@H]1SC[C@@H]2NC(=O)N[C@@H]21)[C@@H](C)O)C(=O)N[C@H](C(=O)N[C@@H](CCCNC(=N)N)C(=O)N[C@H](C(=O)O)C(C)C)[C@@H](C)O [PTEN_KR] ({X1-Suc}-DEDQHTQITRV-OH) | -0.057 | 3.655 | 0.003 | 3.655 | 0.165 | – | 0.058 | 3.655 | 0.067 | 3.655 | 38 | – | 9 | 9 | -0.026 | 3.655 | – | – |
| CC[C@H](C)[C@H](NC(=O)[C@H](CCC(N)=O)NC(=O)[C@@H](NC(=O)[C@H](Cc1c[nH]cn1)NC(=O)[C@H](CCC(N)=O)NC(=O)[C@H](CC(=O)O)NC(=O)[C@H](CCC(=O)O)NC(=O)[C@H](CC(=O)O)NC(=O)[C@H](Cc1ccccc1)NC(=O)[C@@H]1CCCN1C(=O)CCC(=O)NCCCOCCOCCOCCCNC(=O)CCCC[C@@H]1SC[C@@H]2NC(=O)N[C@@H]21)[C@@H](C)O)C(=O)N[C@H](C(=O)N[C@@H](CCCCN)C(=O)N[C@H](C(=O)O)C(C)C)[C@@H](C)O [PTEN_13] ({X1-Suc}-PFDEDQHTQITKV-OH) | -0.027 | – | -0.033 | – | […] | […] | 0.086 | – | -0.054 | – | 25 | 5.89 | 4 | 4 | -0.019 | – | – | slight increased specificity |
